Experimental data: PubChem BioAssay (NCI)
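How tested: cells in 96-well plates exposed to compound for 48 hours at five concentrations. Here, GI50 denotes the concentration required for 50% inhibition of growth. At the TGI there is no net growth.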

Legend:
Experiment in all cases: DTP human tumour cell line panel, 48 h
COLO 205 colon = tested on: COLO 205 colon
KM12 colon = tested on: KM12 colon
TK-10 renal = tested on: TK-10 renal
NCI-H23 lung = tested on: NCI-H23 lung
OVCAR-4 ovarian = tested on: OVCAR-4 ovarian
HL-60(TB) leukemia = tested on: HL-60(TB) leukemia
SK-MEL-2 melanoma = tested on: SK-MEL-2 melanoma
OVCAR-8 ovarian = tested on: OVCAR-8 ovarian
HOP-92 NSCLC = tested on: HOP-92 NSCLC
PC-3 prostate = tested on: PC-3 prostate

SMILES | TGI (COLO 205 colon) | TGI (KM12 colon) | TGI (TK-10 renal) | TGI (NCI-H23 lung) | TGI (OVCAR-4 ovarian) | TGI (HL-60(TB) leukemia) | TGI (SK-MEL-2 melanoma) | TGI (OVCAR-8 ovarian) | TGI (HOP-92 NSCLC) | GI50 (COLO 205 colon) | GI50 (HOP-92 NSCLC) | GI50 (KM12 colon) | GI50 (TK-10 renal) | GI50 (NCI-H23 lung) | GI50 (OVCAR-4 ovarian) | GI50 (HL-60(TB) leukemia) | GI50 (SK-MEL-2 melanoma) | GI50 (OVCAR-8 ovarian) | GI50 (PC-3 prostate) | TGI (PC-3 prostate)
O=c1c2ccccc2c(=O)c2c1cc(Cl)c1[nH]c3c([nH]c12)c(Cl)cc1c(=O)c2ccccc2c(=O)c13 | > 100 µM | > 100 µM | > 100 µM | > 100 µM | > 100 µM | > 100 µM | > 100 µM | > 100 µM | – | – | – | – | – | – | – | – | – | – | – | –
O=C(O)C1c2ccccc2C(C(=O)O)c2ccccc21 (stereo unspecified) | > 100 µM | > 100 µM | > 100 µM | – | > 100 µM | > 100 µM | > 100 µM | > 100 µM | > 100 µM | – | – | – | – | – | – | – | – | – | – | –
Cc1cc(C(=O)N2CCN(Cc3ccccc3)CC2)c(C)o1 | – | > 100 µM | > 100 µM | > 100 µM | > 100 µM | > 100 µM | – | > 100 µM | > 100 µM | – | – | – | – | – | – | – | – | – | – | –
COc1cccc(NC(=O)CC(=O)N2NC(C)C(N=Nc3cccc(C(=O)O)c3)C2=O)c1 (stereo unspecified) | > 100 µM | > 100 µM | > 100 µM | > 100 µM | > 100 µM | – | > 100 µM | > 100 µM | > 100 µM | – | – | – | – | – | – | – | – | – | – | –
CCC[CH2][Sn]([CH2]CCC)([O]C(=O)c1nccnc1N)[O]C(=O)c1nccnc1N | 2.1 µM | 2.74 µM | 2.02 µM | 1.91 µM | 3.49 µM | 1.42 µM | 1.62 µM | 2.45 µM | 2.43 µM | 0.899 µM | 1.16 µM | 1.42 µM | 0.742 µM | 0.573 µM | 2.02 µM | 0.262 µM | 0.424 µM | 1.21 µM | – | –
O=C1/C(=C\c2coc3ccccc3c2=O)c2ccccc2N1c1c(Cl)cccc1Cl | 36 µM | 68.5 µM | > 100 µM | > 100 µM | > 100 µM | 87.6 µM | 6.04 µM | 48.8 µM | – | 3.82 µM | – | 3.06 µM | 3.29 µM | 4.45 µM | 3.66 µM | 2.08 µM | 2.75 µM | 5.47 µM | 1.35 µM | 30.5 µM
Clc1ccc(OC2CCO2)cc1Cl (stereo unspecified) | > 100 µM | > 100 µM | > 100 µM | > 100 µM | > 100 µM | > 100 µM | – | > 100 µM | > 100 µM | – | – | – | – | – | – | – | – | – | – | –
C/C(=N/NC(=O)C(N)=O)C(CC(C(=O)Nc1ccccc1C)/C(C)=N\NC(=O)C(N)=O)C(=O)Nc1ccccc1C (stereo unspecified) | > 100 µM | > 100 µM | > 100 µM | > 100 µM | > 100 µM | > 100 µM | > 100 µM | > 100 µM | > 100 µM | – | – | – | – | – | – | – | – | – | – | –
Cc1cc(NS(=O)(=O)c2ccc(NC(=O)c3cccc4c(Nc5ccc(S(=O)(=O)Nc6cc(C)on6)cc5)c5ccccc5nc34)cc2)no1 | > 100 µM | > 100 µM | – | > 100 µM | > 100 µM | 67 µM | 78.4 µM | > 100 µM | 41 µM | – | – | – | – | – | – | – | – | – | – | –
N#CCC(=O)N/N=C1\C(=O)N(c2ccc(Cl)cc2)C(=O)C(=O)C1c1nc2ccccc2o1 (stereo unspecified) | > 100 µM | > 100 µM | > 100 µM | > 100 µM | > 100 µM | > 100 µM | > 100 µM | > 100 µM | > 100 µM | – | – | – | – | – | – | – | – | – | – | –
